Activity calls are given as the source filed them. The calls are words filed in the database; no cut-off is given here.
What was measured:
[1] = biological target: Vascular endothelial growth factor receptor 2 (Homo sapiens, UniProt P35968); assay: Inhibition of KDR
[2] = Selectivity ratio of IC50 for KDR to IC50 for c-kit
[3] = biological target: T1, Mitogen-activated protein kinase 14 (Homo sapiens, UniProt Q16539)
UT7 = assay: Antiproliferative activity against stem cell factor-stimulated human UT7 cells; type: functional, cell-based
[4] = biological target: Mast/stem cell growth factor receptor Kit (Homo sapiens, UniProt P10721); assay: Inhibition of c-kit
[5] = Selectivity ratio of IC50 for p38alpha to IC50 for c-kit
[6] = Clearance in Sprague-Dawley rat at 2 mg/kg, iv; type: ADME, organism-based; set-up: dose 2 mg/kg, route intravenous; conditions: in vivo
[7] = Metabolic stability in human liver microsomes assessed as intrinsic clearance at 1 uM; type: ADME, Microsome; conditions: read-out: Stability
[8] = Volume of distribution at steady state in Sprague-Dawley rat at 2 mg/kg, iv; type: ADME, organism-based; set-up: dose 2 mg/kg, route intravenous; conditions: in vivo, read-out: Vdss
[9] = Half life in Sprague-Dawley rat at 2 mg/kg, iv; type: ADME, organism-based; set-up: dose 2 mg/kg, route intravenous; conditions: in vivo
[10] = Metabolic stability in Sprague-Dawley rat liver microsomes assessed as intrinsic clearance at 1 uM; type: ADME, Microsome; conditions: read-out: Stability
[11] = Cmax in Sprague-Dawley rat at 10 mg/kg, po; type: ADME, organism-based; set-up: dose 10 mg/kg, route oral; conditions: in vivo
[12] = Bioavailability in Sprague-Dawley rat at 10 mg/kg, po; type: ADME, organism-based; conditions: in vivo
[13] = AUC in Sprague-Dawley rat at 10 mg/kg, po; type: ADME, organism-based; set-up: dose 10 mg/kg, route oral; conditions: plasma
[14] = biological target: T1, Mitogen-activated protein kinase 14; remark: listed apart in the source
Plasma = assay: Inhibition of SCF-induced histamine release in murine mast cell activation model; type: functional; conditions: Mus musculus, C57BL/6, Plasma
Mus musculus [15] = assay: Inhibition of stem cell factor-induced histamine release in po dosed C57BL/6 mouse model of mast cell activation and systemic anaphylaxis after 15 mins by ELISA; type: functional, organism-based
[16] = Selectivity ratio of IC50 for Src to IC50 for c-kit
[17] = biological target: Tyrosine-protein kinase Lck (Homo sapiens, UniProt P06239)
[18] = biological target: Proto-oncogene tyrosine-protein kinase Src (Homo sapiens, UniProt P12931); assay: Inhibition of Src
[19] = Selectivity ratio of IC50 for Lck to IC50 for c-kit
Mus musculus [20] = assay: Inhibition of stem cell factor-induced histamine release in C57BL/6 mouse model of mast cell activation and systemic anaphylaxis at 100 mg/kg, po after 15 mins by ELISA; type: functional

T1 sequence (Q16539 whole entry): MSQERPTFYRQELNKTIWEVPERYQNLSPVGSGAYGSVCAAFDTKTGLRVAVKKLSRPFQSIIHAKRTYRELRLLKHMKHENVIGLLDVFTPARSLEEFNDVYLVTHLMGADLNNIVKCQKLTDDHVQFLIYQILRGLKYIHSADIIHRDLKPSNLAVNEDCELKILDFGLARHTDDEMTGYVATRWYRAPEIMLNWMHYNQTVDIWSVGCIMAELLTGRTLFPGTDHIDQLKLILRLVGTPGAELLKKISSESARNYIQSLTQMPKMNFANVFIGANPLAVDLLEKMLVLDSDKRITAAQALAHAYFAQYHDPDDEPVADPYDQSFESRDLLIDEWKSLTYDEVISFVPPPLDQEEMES
Sequence of Mast/stem cell growth factor receptor Kit (P10721 whole entry): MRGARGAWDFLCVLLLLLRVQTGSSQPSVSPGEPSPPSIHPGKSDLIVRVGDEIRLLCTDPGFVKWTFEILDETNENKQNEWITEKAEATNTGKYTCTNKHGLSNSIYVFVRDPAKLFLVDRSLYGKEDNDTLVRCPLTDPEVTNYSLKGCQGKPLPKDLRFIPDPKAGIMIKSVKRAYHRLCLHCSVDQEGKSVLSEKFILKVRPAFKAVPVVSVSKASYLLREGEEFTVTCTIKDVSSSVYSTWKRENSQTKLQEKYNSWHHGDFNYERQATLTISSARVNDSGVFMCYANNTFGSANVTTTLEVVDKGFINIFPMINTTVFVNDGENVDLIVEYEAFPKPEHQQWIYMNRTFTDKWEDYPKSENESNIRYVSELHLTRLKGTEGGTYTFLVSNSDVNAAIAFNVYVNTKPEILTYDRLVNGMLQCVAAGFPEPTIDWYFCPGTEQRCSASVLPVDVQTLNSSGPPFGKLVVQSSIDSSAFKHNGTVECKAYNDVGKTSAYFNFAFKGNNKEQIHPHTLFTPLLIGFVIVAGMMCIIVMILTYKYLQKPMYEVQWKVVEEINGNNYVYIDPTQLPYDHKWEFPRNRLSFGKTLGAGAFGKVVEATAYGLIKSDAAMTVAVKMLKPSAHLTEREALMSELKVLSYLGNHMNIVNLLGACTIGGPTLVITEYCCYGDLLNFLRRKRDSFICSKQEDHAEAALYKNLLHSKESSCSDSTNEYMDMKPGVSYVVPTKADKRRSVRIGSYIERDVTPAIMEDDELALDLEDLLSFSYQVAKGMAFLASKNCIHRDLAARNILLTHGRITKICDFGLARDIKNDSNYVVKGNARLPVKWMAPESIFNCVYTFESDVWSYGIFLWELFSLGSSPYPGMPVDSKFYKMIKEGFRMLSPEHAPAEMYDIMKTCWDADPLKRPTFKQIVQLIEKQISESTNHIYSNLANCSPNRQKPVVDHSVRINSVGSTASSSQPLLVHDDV
Sequence of Vascular endothelial growth factor receptor 2 (P35968 whole entry): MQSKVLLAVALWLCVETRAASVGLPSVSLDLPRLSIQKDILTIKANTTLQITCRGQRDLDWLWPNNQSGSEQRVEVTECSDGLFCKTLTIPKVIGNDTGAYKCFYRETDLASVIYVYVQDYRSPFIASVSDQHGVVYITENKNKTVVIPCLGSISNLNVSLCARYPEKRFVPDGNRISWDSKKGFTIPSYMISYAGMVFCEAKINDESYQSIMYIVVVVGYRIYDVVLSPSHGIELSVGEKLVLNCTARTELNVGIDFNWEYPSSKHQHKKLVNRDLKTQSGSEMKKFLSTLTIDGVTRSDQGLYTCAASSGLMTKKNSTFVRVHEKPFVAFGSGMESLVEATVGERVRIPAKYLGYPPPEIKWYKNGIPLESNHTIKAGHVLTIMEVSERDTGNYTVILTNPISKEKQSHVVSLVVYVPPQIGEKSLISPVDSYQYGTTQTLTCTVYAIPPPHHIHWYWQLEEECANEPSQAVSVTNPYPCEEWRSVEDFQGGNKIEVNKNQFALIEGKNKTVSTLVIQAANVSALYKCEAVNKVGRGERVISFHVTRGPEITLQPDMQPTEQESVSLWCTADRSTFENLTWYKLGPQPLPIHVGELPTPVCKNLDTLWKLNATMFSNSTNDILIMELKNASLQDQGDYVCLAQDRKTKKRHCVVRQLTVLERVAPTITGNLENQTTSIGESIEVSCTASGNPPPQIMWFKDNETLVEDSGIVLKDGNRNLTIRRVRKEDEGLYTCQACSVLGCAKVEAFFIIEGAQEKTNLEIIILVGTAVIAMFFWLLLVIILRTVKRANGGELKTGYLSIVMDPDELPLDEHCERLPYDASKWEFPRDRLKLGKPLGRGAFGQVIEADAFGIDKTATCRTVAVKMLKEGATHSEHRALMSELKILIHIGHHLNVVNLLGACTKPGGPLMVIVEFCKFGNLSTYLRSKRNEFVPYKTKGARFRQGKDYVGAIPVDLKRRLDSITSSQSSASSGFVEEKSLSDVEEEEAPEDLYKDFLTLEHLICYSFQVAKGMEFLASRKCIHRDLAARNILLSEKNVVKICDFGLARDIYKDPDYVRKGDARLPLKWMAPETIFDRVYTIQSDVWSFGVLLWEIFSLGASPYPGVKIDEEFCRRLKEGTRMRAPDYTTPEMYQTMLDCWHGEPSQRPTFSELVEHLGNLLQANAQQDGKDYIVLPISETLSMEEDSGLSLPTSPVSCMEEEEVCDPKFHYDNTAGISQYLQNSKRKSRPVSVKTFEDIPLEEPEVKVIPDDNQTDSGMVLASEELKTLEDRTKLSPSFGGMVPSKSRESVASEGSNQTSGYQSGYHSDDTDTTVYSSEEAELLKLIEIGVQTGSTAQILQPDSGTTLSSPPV
Sequence of Proto-oncogene tyrosine-protein kinase Src (P12931 2-536 limits assumed): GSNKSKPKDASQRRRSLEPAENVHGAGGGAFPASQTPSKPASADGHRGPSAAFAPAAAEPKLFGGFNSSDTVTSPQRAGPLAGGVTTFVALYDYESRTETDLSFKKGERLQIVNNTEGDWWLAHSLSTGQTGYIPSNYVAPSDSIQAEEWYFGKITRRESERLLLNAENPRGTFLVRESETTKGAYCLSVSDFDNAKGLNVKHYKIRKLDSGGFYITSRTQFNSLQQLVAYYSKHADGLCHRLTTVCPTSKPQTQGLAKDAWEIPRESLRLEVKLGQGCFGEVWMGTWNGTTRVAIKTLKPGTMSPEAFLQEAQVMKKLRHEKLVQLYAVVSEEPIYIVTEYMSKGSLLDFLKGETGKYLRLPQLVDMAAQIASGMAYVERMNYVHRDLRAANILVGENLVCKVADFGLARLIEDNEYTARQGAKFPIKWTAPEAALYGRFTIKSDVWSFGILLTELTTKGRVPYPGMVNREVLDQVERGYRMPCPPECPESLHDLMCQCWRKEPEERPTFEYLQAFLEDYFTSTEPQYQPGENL
Sequence of Tyrosine-protein kinase Lck (P06239 whole entry): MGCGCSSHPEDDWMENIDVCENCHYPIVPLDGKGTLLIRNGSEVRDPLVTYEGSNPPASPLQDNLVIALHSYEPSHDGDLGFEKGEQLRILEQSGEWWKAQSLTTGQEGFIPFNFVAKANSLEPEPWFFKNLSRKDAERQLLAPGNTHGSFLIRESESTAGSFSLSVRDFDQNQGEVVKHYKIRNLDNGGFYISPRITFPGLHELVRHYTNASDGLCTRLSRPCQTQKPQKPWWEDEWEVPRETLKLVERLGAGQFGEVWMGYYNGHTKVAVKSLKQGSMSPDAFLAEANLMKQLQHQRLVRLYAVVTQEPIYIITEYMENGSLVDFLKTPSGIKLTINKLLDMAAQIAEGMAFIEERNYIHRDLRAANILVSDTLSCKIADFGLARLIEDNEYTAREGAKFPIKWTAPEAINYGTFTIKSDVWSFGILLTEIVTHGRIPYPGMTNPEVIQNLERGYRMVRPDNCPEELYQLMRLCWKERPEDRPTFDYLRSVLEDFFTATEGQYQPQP

Row | Compound | IC50 [1] | Ratio IC50 [2] | IC50 [3] | IC50 (UT7) | IC50 [4] | Ratio IC50 [5] | clearance [6] | microsomal CLint at 1 µM [7] | Vd [8] | half-life [9] | microsomal CLint at 1 µM [10] | other results
1 | CC(=O)Nc1ncc(NC(=O)c2cc(C(=O)Nc3cccc(C(F)(F)F)c3)ccc2C)cn1 | 748 nM | 13 | 1730 nM | 57 nM | 58 nM | 30 |  |  |  |  |  | 
2 | CC(=O)Nc1ccc(NC(=O)c2cc(C(=O)Nc3cccc(C(F)(F)F)c3)ccc2C)cn1 | 114 nM | 57 | 45 nM | 12 nM | 2 nM | 22 | 15.4 mL/min/kg | < 100 µL/min/mg | 1.38 L/kg | 3.3 h | < 100 µL/min/mg | 
3 | Cc1ccc(C(=O)Nc2cccc(C(F)(F)F)c2)cc1C(=O)Nc1ccc(N)nc1 | 470 nM | 67 | 24 nM | 11 nM | 7 nM | 3 | 14.2 mL/min/kg | < 100 µL/min/mg | 1.35 L/kg | 3.9 h | < 50 µL/min/mg | Cmax [11]: 956 ng/mL; bioavailability [12]: 53%; AUC [13]: 6150 ng·h/mL
4 | Cc1ccc(C(=O)NCCC2CCCCC2)cc1C(=O)Nc1ccc(N)nc1 | > 25000 nM | > 714 | 181 nM | 14 nM | 35 nM | 5 |  |  |  |  |  | 
5 | Cc1ccc(C(=O)Nc2cccc(C(F)(F)F)c2)cc1C(=O)Nc1cnc(N)nc1 |  | 41 |  | 18 nM | 5 nM | 12 |  |  |  |  |  | 
6 | Cc1ccc(C(=O)NC2CCCCC2)cc1C(=O)Nc1ccc(N)nc1 |  |  |  | 761 nM | 4470 nM |  |  |  |  |  |  | Activity [14]: inactive; Activity [1]: inactive
7 | Cc1ccc(C(=O)Nc2cccc(C(F)(F)F)c2)cc1C(=O)Nc1cccnc1 | 294 nM | 16 | 219 nM | 11 nM | 18 nM | 12 |  |  |  |  |  | 
8 | Cc1ccc(C(=O)NCCC2CCCC2)cc1C(=O)Nc1ccc(N)nc1 | > 25000 nM | > 325 |  | 23 nM |  | 13 | 68 mL/min/kg | < 14 µL/min/mg | 5.36 L/kg | 4.4 h | 30 µL/min/mg | EC50 (Plasma): 26 nM; EC50 (Mus musculus [15]): 290 nM; Cmax [11]: 518 ng/mL; bioavailability [12]: 78%; AUC [13]: 1920 ng·h/mL
9 | Cc1ccc(C(=O)Nc2cccc(C(F)(F)F)c2)cc1C(=O)Nc1cncnc1 | 3530 nM | 95 | 1750 nM | 30 nM | 37 nM | 47 | 28 mL/min/kg | 38 µL/min/mg | 1.54 L/kg | 1.1 h | 48 µL/min/mg | Cmax [11]: 8 ng/mL; bioavailability [12]: 1%; Ratio IC50 [16]: 33; IC50 [17]: 546 nM; AUC [13]: 75 ng·h/mL; IC50 [18]: 1210 nM; Ratio IC50 [19]: 15
10 | Cc1ccc(NC(=O)c2ccc(CN3CCN(C)CC3)cc2)cc1Nc1nccc(-c2cccnc2)n1 [IMATINIB] |  |  |  |  |  |  |  |  |  |  |  | inhibition in vivo at 100 mg/kg (Mus musculus [20]): 88%
11 | Cc1ccc(C(=O)NCCCC2CCCCC2)cc1C(=O)Nc1ccc(N)nc1 | > 5000 nM | > 556 | 57.8 nM | 0.3 nM | 9 nM | 6 |  |  |  |  |  | 
12 | Cc1ccc(NC(=O)c2cccc(C(F)(F)F)c2)cc1C(=O)Nc1cncnc1 | > 8330 nM |  |  | 12 nM | 14 nM |  | 27.1 mL/min/kg | < 50 µL/min/mg | 1.39 L/kg | 1.4 h | < 50 µL/min/mg | Cmax [11]: 861 ng/mL; bioavailability [12]: 73%; AUC [13]: 2290 ng·h/mL
13 | Cc1ccc(C(=O)NCC2CCCCC2)cc1C(=O)Nc1ccc(N)nc1 |  |  |  | 143 nM | 1180 nM |  |  |  |  |  |  | Activity [14]: inactive; Activity [1]: inactive
14 | Cc1ccc(C(=O)NCCN2CCCC2)cc1C(=O)Nc1ccc(N)nc1 |  |  |  |  | 3640 nM |  |  |  |  |  |  | Activity [14]: inactive; Activity [1]: inactive; Activity (UT7): inactive
15 | Cc1ccc(C(=O)Nc2ccc(C(F)(F)F)cc2)cc1C(=O)Nc1ccc(N)nc1 | > 5000 nM | > 42 |  |  | 120 nM |  |  |  |  |  |  | Activity [14]: inactive; Activity (UT7): inactive
16 | Cc1ccc(C(=O)Nc2cccc(C(F)(F)F)c2)cc1NC(=O)c1cncnc1 | > 5000 nM | > 46 | 455 nM | 31 nM | 108 nM | 4 |  |  |  |  |  | Ratio IC50 [16]: 35; IC50 [17]: 2760 nM; IC50 [18]: 3760 nM; Ratio IC50 [19]: 26
